Results as given in PubChem BioAssay AID2060490 (Molecular Pharmacology Branch, DTP, NCI, 2025).

System: 885512-296-R-J2-PDC complex spheroid viability
Assay: Anticancer human tumor 885512-296-R-J2-PDC patient-derived breast carcinoma cell line growth inhibition [GQUAD]
Conditions: for IC50: curve of first compound; for viability, T/C: stronger effect = lower value
Summary of the method: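 Viability of tumor cells grown as complex spheroids with endothelial and stromal cells, exposed to drug combinations. Top concentration at or near clinical Cmax (else 10 microM), diluted in half-log increments.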

[1] = second compound 0.0316 µM, first compound 0.0316 µM
[2] = second compound 0.0316 µM, first compound 0.316 µM
[3] = second compound 0.1 µM, first compound 0.0316 µM
[4] = second compound 0.1 µM, first compound 0.316 µM
[5] = second compound 0.316 µM, first compound 0.0316 µM
[6] = second compound 0.316 µM, first compound 0.316 µM
[7] = second compound 1 µM, first compound 0.0316 µM
[8] = second compound 1 µM, first compound 0.316 µM
[9] = second compound 3.16 µM, first compound 0.0316 µM
[10] = second compound 3.16 µM, first compound 0.316 µM
[11] = second compound 10 µM, first compound 0.0316 µM
[12] = second compound 10 µM, first compound 0.316 µM
[13] = second compound 0.0316 µM, first compound 0.1 µM
[14] = second compound 0.0316 µM, first compound 1 µM
[15] = second compound 0.0316 µM, first compound 3.16 µM
[16] = second compound 0.0316 µM, first compound 10 µM
[17] = second compound 0.1 µM, first compound 0.1 µM
[18] = second compound 0.1 µM, first compound 1 µM
[19] = second compound 0.1 µM, first compound 3.16 µM
[20] = second compound 0.1 µM, first compound 10 µM
[21] = second compound 0.316 µM, first compound 0.1 µM
[22] = second compound 0.316 µM, first compound 1 µM
[23] = second compound 0.316 µM, first compound 3.16 µM
[24] = second compound 0.316 µM, first compound 10 µM
[25] = second compound 1 µM, first compound 0.1 µM
[26] = second compound 1 µM, first compound 1 µM
[27] = second compound 1 µM, first compound 3.16 µM
[28] = second compound 1 µM, first compound 10 µM
[29] = second compound 3.16 µM, first compound 0.1 µM
[30] = second compound 3.16 µM, first compound 1 µM
[31] = second compound 3.16 µM, first compound 3.16 µM
[32] = second compound 3.16 µM, first compound 10 µM
[33] = second compound 10 µM, first compound 0.1 µM
[34] = second compound 10 µM, first compound 1 µM
[35] = second compound 10 µM, first compound 3.16 µM
[36] = second compound 10 µM, first compound 10 µM
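Note: spheroids exposed to the compounds for one week.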
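Throughout, for viability, T/C: percent of tumor spheroid viability relative to DMSO vehicle control wells.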

SMILES: Cc1[nH]c2ccccc2c1CCNCc1ccc(/C=C/C(=O)NO)cc1 + CN(C)c1ccc(Nc2c3ccc(NC(=O)CCN4CCCC4)cc3nc3cc(NC(=O)CCN4CCCC4)ccc23)cc1
- IC50 (second compound 0.0316 µM): 26.3 nM
- IC50 (second compound 0.1 µM): 24.8 nM
- IC50 (second compound 0.316 µM): 20.3 nM
- IC50 (second compound 1 µM): 30.8 nM
- IC50 (second compound 3.16 µM): 8.45 nM
- IC50 (second compound 10 µM): < 0.999 nM
- viability, T/C (second compound 0.0316 µM, first compound 0.000999 µM): 96.5%
- viability, T/C (second compound 0.0316 µM, first compound 0.00316 µM): 84.1%
- viability, T/C (second compound 0.0316 µM, first compound 0.00999 µM): 70.8%
- viability, T/C [1]: 40.1%
- viability, T/C (second compound 0.0316 µM, first compound 0.0999 µM): 30.1%
- viability, T/C [2]: 3.59%
- viability, T/C (second compound 0.1 µM, first compound 0.000999 µM): 95.6%
- viability, T/C (second compound 0.1 µM, first compound 0.00316 µM): 91.7%
- viability, T/C (second compound 0.1 µM, first compound 0.00999 µM): 64.8%
- viability, T/C [3]: 44.1%
- viability, T/C (second compound 0.1 µM, first compound 0.0999 µM): 25.3%
- viability, T/C [4]: 4.19%
- viability, T/C (second compound 0.316 µM, first compound 0.000999 µM): 103%
- viability, T/C (second compound 0.316 µM, first compound 0.00316 µM): 93.2%
- viability, T/C (second compound 0.316 µM, first compound 0.00999 µM): 63%
- viability, T/C [5]: 35.9%
- viability, T/C (second compound 0.316 µM, first compound 0.0999 µM): 28.6%
- viability, T/C [6]: 4.61%
- viability, T/C (second compound 1 µM, first compound 0.000999 µM): 85.7%
- viability, T/C (second compound 1 µM, first compound 0.00316 µM): 94.4%
- viability, T/C (second compound 1 µM, first compound 0.00999 µM): 63.7%
- viability, T/C [7]: 48%
- viability, T/C (second compound 1 µM, first compound 0.0999 µM): 29.5%
- viability, T/C [8]: 4.03%
- viability, T/C (second compound 3.16 µM, first compound 0.000999 µM): 80%
- viability, T/C (second compound 3.16 µM, first compound 0.00316 µM): 64.7%
- viability, T/C (second compound 3.16 µM, first compound 0.00999 µM): 46.5%
- viability, T/C [9]: 30.1%
- viability, T/C (second compound 3.16 µM, first compound 0.0999 µM): 24.6%
- viability, T/C [10]: 5.49%
- viability, T/C (second compound 10 µM, first compound 0.000999 µM): 18.2%
- viability, T/C (second compound 10 µM, first compound 0.00316 µM): 17.7%
- viability, T/C (second compound 10 µM, first compound 0.00999 µM): 11.3%
- viability, T/C [11]: 10.3%
- viability, T/C (second compound 10 µM, first compound 0.0999 µM): 13%
- viability, T/C [12]: 2.87%

SMILES: C=CCn1c(=O)c2cnc(Nc3ccc(N4CCN(C)CC4)cc3)nc2n1-c1cccc(C(C)(C)O)n1 + CN(C)c1ccc(Nc2c3ccc(NC(=O)CCN4CCCC4)cc3nc3cc(NC(=O)CCN4CCCC4)ccc23)cc1
- IC50 (second compound 0.0316 µM): 415 nM
- IC50 (second compound 0.1 µM): 311 nM
- IC50 (second compound 0.316 µM): 341 nM
- IC50 (second compound 1 µM): 462 nM
- IC50 (second compound 3.16 µM): 358 nM
- IC50 (second compound 10 µM): < 31.6 nM
- viability, T/C [1]: 104%
- viability, T/C [13]: 102%
- viability, T/C [2]: 62.7%
- viability, T/C [14]: 8.77%
- viability, T/C [15]: 3.39%
- viability, T/C [16]: 2.43%
- viability, T/C [3]: 120%
- viability, T/C [17]: 98.9%
- viability, T/C [4]: 51.7%
- viability, T/C [18]: 7.71%
- viability, T/C [19]: 3.11%
- viability, T/C [20]: 2.74%
- viability, T/C [5]: 122%
- viability, T/C [21]: 93.5%
- viability, T/C [6]: 58%
- viability, T/C [22]: 9.28%
- viability, T/C [23]: 2.73%
- viability, T/C [24]: 2.28%
- viability, T/C [7]: 102%
- viability, T/C [25]: 103%
- viability, T/C [8]: 70.5%
- viability, T/C [26]: 8.23%
- viability, T/C [27]: 2.54%
- viability, T/C [28]: 2.76%
- viability, T/C [9]: 105%
- viability, T/C [29]: 98.3%
- viability, T/C [10]: 55.2%
- viability, T/C [30]: 8.19%
- viability, T/C [31]: 2.51%
- viability, T/C [32]: 2.74%
- viability, T/C [11]: 22%
- viability, T/C [33]: 22.4%
- viability, T/C [12]: 12.2%
- viability, T/C [34]: 5.57%
- viability, T/C [35]: 1.22%
- viability, T/C [36]: 1.46%

SMILES: Cc1cccc(N(C)C(=O)C2C(O)CCN2c2nc(C)cc(C(F)(F)F)c2C#N)c1 (stereo unspecified) + CN(C)c1ccc(Nc2c3ccc(NC(=O)CCN4CCCC4)cc3nc3cc(NC(=O)CCN4CCCC4)ccc23)cc1
- IC50 (second compound 0.0316 µM): > 10000 nM
- IC50 (second compound 0.1 µM): > 10000 nM
- IC50 (second compound 0.316 µM): > 10000 nM
- IC50 (second compound 1 µM): > 10000 nM
- IC50 (second compound 3.16 µM): > 10000 nM
- IC50 (second compound 10 µM): < 31.6 nM
- viability, T/C [1]: 101%
- viability, T/C [13]: 89.8%
- viability, T/C [2]: 106%
- viability, T/C [14]: 102%
- viability, T/C [15]: 113%
- viability, T/C [16]: 97.7%
- viability, T/C [3]: 110%
- viability, T/C [17]: 106%
- viability, T/C [4]: 102%
- viability, T/C [18]: 87.3%
- viability, T/C [19]: 104%
- viability, T/C [20]: 91.7%
- viability, T/C [5]: 111%
- viability, T/C [21]: 99.6%
- viability, T/C [6]: 106%
- viability, T/C [22]: 97.8%
- viability, T/C [23]: 101%
- viability, T/C [24]: 96.8%
- viability, T/C [7]: 88.5%
- viability, T/C [25]: 105%
- viability, T/C [8]: 95.1%
- viability, T/C [26]: 93.2%
- viability, T/C [27]: 84.6%
- viability, T/C [28]: 80.8%
- viability, T/C [9]: 94.8%
- viability, T/C [29]: 96.5%
- viability, T/C [10]: 108%
- viability, T/C [30]: 86.8%
- viability, T/C [31]: 96.2%
- viability, T/C [32]: 62.2%
- viability, T/C [11]: 23.6%
- viability, T/C [33]: 22.4%
- viability, T/C [12]: 18.6%
- viability, T/C [34]: 19.3%
- viability, T/C [35]: 15.8%
- viability, T/C [36]: 5.88%
